Residue numbers refer to the chain shown, from its start.
What was measured:
homomeric α1 GlyR [1] = biological target: T1, homomeric α1 GlyR (Homo sapiens, UniProt P23415); assay: whole-cell patch clamp, U-tube application, Hill fit of peak currents; type: cell-based
T1 construct: gene GLRA1; full-length subunit, pcDNA3.1, transient expression in HEK293A; homopentamer; eGFP from separate plasmid
T1 sequence (P23415 29-457): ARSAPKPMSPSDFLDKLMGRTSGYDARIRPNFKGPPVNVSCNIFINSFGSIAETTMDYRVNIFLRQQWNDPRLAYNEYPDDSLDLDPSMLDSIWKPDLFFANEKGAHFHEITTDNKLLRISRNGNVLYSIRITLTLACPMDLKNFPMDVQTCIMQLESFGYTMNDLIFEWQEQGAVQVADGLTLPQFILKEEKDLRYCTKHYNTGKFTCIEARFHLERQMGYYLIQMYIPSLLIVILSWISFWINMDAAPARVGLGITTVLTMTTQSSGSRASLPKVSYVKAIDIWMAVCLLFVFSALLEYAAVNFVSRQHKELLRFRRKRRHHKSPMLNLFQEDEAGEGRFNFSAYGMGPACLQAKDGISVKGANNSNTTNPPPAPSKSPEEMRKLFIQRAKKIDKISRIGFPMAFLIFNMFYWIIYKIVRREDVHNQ
Excerpt: (§1) whole-cell patch clamp, U-tube application, Hill fit of peak currents on homomeric α1 GlyR

homomeric α1 GlyR [2] = biological target: T2, homomeric α1 GlyR (Homo sapiens, UniProt P23415, S298T); assay: as above; type: cell-based
T2 construct: gene GLRA1; full-length subunit, pcDNA3.1, transient expression in HEK293A; homopentamer; eGFP from separate plasmid
T2 sequence (P23415 29-457 S298T): T1 sequence (P23415 29-457) with S270T
Excerpt: as §1

EC50 (homomeric α1 GlyR [1]): 14 ± 6 mM
EC50 (homomeric α1 GlyR [2]): 23 ± 3 mM
SMILES: CNCC(=O)O [sarcosine]
